The values below come from patent US5491151A, “Antitumor treatment method” (Kabushiki Kaisha Hayashibara Seibutsu Kagaku Kenkyujo, priority 1989, dated 1996).

Data set [1] has as its system Meth A ascitic tumor cell. The experiment in a line: Antitumor effect on tumor-bearing mouse (life-span increasing effect, Meth A ascitic tumor). Particulars: for Mean survival days: i.p. twice a week over 40 days, * significant to control at 5% or lower; for Increase in life-span (T/C %) / Survivals after 40 days: i.p.; for Increase in life-span (T/C %): control = 100; for Survivals after 40 days: group of seven mice. The format is in vivo, BALB/c mice. The protocol: Compounds No.1, 7 and 8 in Table I were evaluated for their antitumor activity using as the criterion the life-span increasing effect on tumor-bearing mice which had received the transplantation of Meth A ascitic tumor cell.
More particularly, 8 week-old male BALB/c mice were intraperitoneally transplanted with 1×10^5 cells/mouse of Meth A cell. Ten days after the transplantation, a group of seven mice with a successful transplantation were intraperitoneally administered with either Compound No.1, 7 or 8 in Table I twice a week over a period of 40 days while monitoring the mice.
Control group was intraperitoneally administered with 0.2 ml saline in accordance with the same administration schedule.
The rate of increase in life-span (T/C %) under the above conditions was calculated from the mean survival days found for the test group (T) and control group (C). [formula]

The next data set concerns macrophage. The experiment in a line: Activation of macrophage by cyanine dye (adherent ascites cells of treated mice cultured with Meth A ascitic tumor cells, 3H-thymidine incorporation). Format: cell-based, BALB/c mice. Particulars: 50 ng/0.2 ml/animal intraperitoneal to mice, cells collected two days later. The protocol:
Two days after the administration, the ascites of the mice were extracted, and the cells which adhered onto plastic Petri dish were collected.
Control group was intraperitoneally administered with 0.2 ml saline.
Thereafter, the incorporation of ^3 H-thymidine in the tumor cell was determined by conventional method, and the growth inhibitory rate for tumor (%) was calculated with the following equation.
For orientation: Dividing cells build labelled thymidine or BrdU into new DNA.

For the next data set, the system named is Meth A ascitic tumor. The experiment in a line: Synergistic effect by the combination with hyperthermia (growth inhibition of Meth A tumor). Format: in vivo, BALB/c mice. Particulars: 20 ng/0.1 ml/animal s.c. twice a week; for Mean wet weight of tumor: 40th day; for Growth inhibitory rate for tumor (%): control = 100. The protocol: More particularly, 6 week-old BALB/c mice were subcutaneously transplanted in their femoral area with 2×10^5 cells/animal of Meth A cell. […] Immediately after every administration, the tumoral sites of the mice were soaked in about 42° C. water bath for about 60 minutes. On the 40th day after the transplantation, the mean wet weight of tumor was determined by the method in Experiment 2-2.
Separately, one of other groups was administered with either cyanine dye, and determined for its mean wet weight of tumor, while one another group was first administered with saline, then subjected to hyperthermia, followed by determining the mean wet weight of tumor.
Control group was subcutaneously injected with 0.1 ml saline in the femoral area.
The mean wet weights of tumor were put into the following equation to calculate the growth inhibitory rate for tumor (%) which was then used to evaluate any synergistic effect by the combination of cyanine dye and hyperthermia. [formula]

The next data set concerns MC-1 cell. The experiment in a line: Antitumor effect by growth inhibition of tumor (MC-1, with or without light-irradiation). The format is in vivo, C57BL/6 mice. Particulars: for Mean wet weight of tumor: 27th day, * significant at 5% or lower; for Rate of survival (%): 35th day. The protocol:
Compounds No.1, 7 and 8 in Table I were evaluated for their antitumor activity using as the criterion the growth inhibitory effect on MC-1 cell, a methylcholanthrene-induced syngenic tumor.
Eight week-old female C57BL/6 mice were subcutaneously transplanted in their dorsum area with 1×10^5 cells/animal of MC-1 cell. Five days after the transplantation, a group of seven mice with a successful transplantation were subcutaneously administered with either Compound No.1, 7 or 8 in Table I twice a week over a period of 25 days while monitoring the mice.
One another group of mice were light-irradiated with 100 W medical infrared lamp (100 V) placed about one meter in apart immediately after every administration of either Compound No.1, 7 or 8.
Control group was subcutaneously administered with 0.2 ml saline in accordance with the same administration schedule.
On the 27th day after the transplantation, the wet weight of tumor was determined by the method in Y. Shimosato and N. Tamaoki, Human Cancer and Nude mice, pp. 321-323, published by Ishiyaku Publishers Inc., Tokyo, Japan (1982), as well as monitoring the rate (%) of survivals on the 35th day.

The nature of another data set: Acute toxicity (LD50). Particulars: mouse, in vivo, 7 days. The format is in vivo. The protocol:
(§1) Either of Compounds No.1-8 in Table I was dissolved or suspended in saline containing 5% gum arabic, and a group of ddy mice, about 10-20 g each, received an intraperitoneal or oral administration of the resultant mixture occasionally through a stomach tube, followed by monitoring and counting dead mice for an additional 7 days to determine respective LD50 value in accordance with the Van der Waerden's method.

The next data set has as its system ddy mice. As to the kind of experiment: Acute toxicity (LD50). The format is in vivo. The following applies: 7 days. The protocol:
as §1

Setting [2] is: combined with hyperthermia (about 42° C., 60 minutes).
Setting [3] is: 0.5 ng/0.2 ml/animal s.c., combined with light-irradiation.
The mark [4] stands for this setting: 0.5 ng/0.2 ml/animal s.c., no light-irradiation.
[5] abbreviates: 5 ng/0.2 ml/animal s.c., combined with light-irradiation.
The mark [6] stands for this setting: 5 ng/0.2 ml/animal s.c., no light-irradiation.
[7] abbreviates: 50 ng/0.2 ml/animal s.c., combined with light-irradiation.
The mark [8] stands for this setting: 50 ng/0.2 ml/animal s.c., no light-irradiation.
Setting [9] is: ip, intraperitoneal administration.
[10] abbreviates: intraperitoneal administration, 10080 min.

In the case of `CCCCN1C=CC(=CC=C(C=Cc2cc[n+](CCCC)c3ccccc23)c2cc[n+](CCCC)c3ccccc23)c2ccccc21`, the Mean survival days in data set [1] (0.5 ng/0.2 ml/animal) was 31.1 ± 4.2 days; in data set [1] (5 ng/0.2 ml/animal), 42.9 ± 6.0 days; in data set [1] (50 ng/0.2 ml/animal), 39.9 ± 5.4 days. Further, the “Increase in life-span (T/C %)” value in data set [1] (0.5 ng/0.2 ml/animal) came out at 105%; in data set [1] (5 ng/0.2 ml/animal) it was 145%; in data set [1] (50 ng/0.2 ml/animal) it was 135%. The entries for the “Survivals after 40 days” value in data set [1] (0.5 ng/0.2 ml/animal), in data set [1] (5 ng/0.2 ml/animal) and in data set [1] (50 ng/0.2 ml/animal) were 0, 5 and 4, respectively. Besides, the “Growth inhibitory rate (%)” value in the data set with macrophage came to 37.6%. Besides, the “Mean wet weight of tumor” value in the data set with Meth A ascitic tumor (setting [2]) came to 0.62 ± 0.45 g; in the data set with Meth A ascitic tumor (no hyperthermia) it was 3.35 ± 1.75 g; in the data set on MC-1 cell (setting [3]), 3.3 ± 0.6 g; in the data set on MC-1 cell (setting [4]) it was 4.7 ± 1.0 g; in the data set with MC-1 cell (setting [5]) it was 1.9 ± 0.8 g; in the data set with MC-1 cell (setting [6]), 3.5 ± 0.8 g. In addition, the “Mean wet weight of tumor” value is recorded as 2.6 ± 0.5 g in the data set on MC-1 cell (setting [7]) and 4.0 ± 0.4 g in the data set with MC-1 cell (setting [8]). The “Growth inhibitory rate for tumor (%)” value with Meth A ascitic tumor (combined with hyperthermia) came out at 12.6%; in the data set on Meth A ascitic tumor (no hyperthermia), 68.2%. Besides, the “Rate of survival (%)” value with MC-1 cell (setting [3]) turned out to be 85.7%; in the data set on MC-1 cell (setting [4]), 71.4%; in the data set on MC-1 cell (setting [5]) it was 100%; in the data set on MC-1 cell (setting [6]) it was 100%; with MC-1 cell (setting [7]), 100%; in the data set with MC-1 cell (setting [8]), 85.7%. For the same molecule, the LD50 at 168 h in the data set “Acute toxicity (LD50)” (setting [9]) was 84 mg/kg; in “Acute toxicity (LD50)” (po, oral administration) it was at least 4000 mg/kg.
As for `CCN1C=CC(=CC=C(C=Cc2cc[n+](CC)c3ccccc23)c2cc[n+](CC)c3ccccc23)c2ccccc21` [Compound No.1, [bis-4-(ethylquinoline)][γ-4'-(1-ethylquinoline)] pentamethine cyanine diiodide], the values for the Mean survival days in data set [1] (0.5 ng/0.2 ml/animal), in data set [1] (5 ng/0.2 ml/animal) and in data set [1] (50 ng/0.2 ml/animal) were 36.1 ± 4.3 days, 48.9 ± 4.2 days and 45.6 ± 4.2 days, respectively. The results for the “Increase in life-span (T/C %)” value in data set [1] (0.5 ng/0.2 ml/animal), in data set [1] (5 ng/0.2 ml/animal) and in data set [1] (50 ng/0.2 ml/animal) were 122%, 165% and 154%, respectively. Besides, the figures for the “Survivals after 40 days” value in data set [1] (0.5 ng/0.2 ml/animal), in data set [1] (5 ng/0.2 ml/animal) and in data set [1] (50 ng/0.2 ml/animal) were 2, 7 and 6, respectively. The “Growth inhibitory rate (%)” value with macrophage worked out at 25.1%. Moreover, the “Mean wet weight of tumor” value in the data set with Meth A ascitic tumor (setting [2]) came to 0.12 ± 0.15 g; with Meth A ascitic tumor (no hyperthermia), 3.24 ± 1.45 g; with MC-1 cell (setting [3]), 2.8 ± 0.3 g; in the data set on MC-1 cell (setting [4]), 4.1 ± 0.5 g; in the data set with MC-1 cell (setting [5]) it was 0.8 ± 0.1 g; with MC-1 cell (setting [6]) it was 3.1 ± 0.4 g. In addition, the “Mean wet weight of tumor” value with MC-1 cell (setting [7]) is 1.5 ± 0.3 g; in the data set on MC-1 cell (setting [8]), 3.7 ± 0.2 g. Moreover, the “Growth inhibitory rate for tumor (%)” value was 2.4% with Meth A ascitic tumor (combined with hyperthermia) and 65.9% in the data set with Meth A ascitic tumor (no hyperthermia). In addition, the “Rate of survival (%)” value in the data set on MC-1 cell (setting [3]) came out at 100%; in the data set on MC-1 cell (setting [4]), 85.7%; in the data set on MC-1 cell (setting [5]), 100%; in the data set with MC-1 cell (setting [6]), 100%; in the data set on MC-1 cell (setting [7]) it was 100%; in the data set with MC-1 cell (setting [8]), 100%. The LD50 at 168 h in “Acute toxicity (LD50)” (setting [9]) was 34 mg/kg; in “Acute toxicity (LD50)” (po, oral administration) it was at least 4000 mg/kg.
For `CN1C(=CC=C(C=Cc2sc3ccccc3[n+]2C)c2sc3ccccc3[n+]2C)Sc2ccccc21` [Compound No.8], the figures for the Mean survival days in data set [1] (0.5 ng/0.2 ml/animal), in data set [1] (5 ng/0.2 ml/animal) and in data set [1] (50 ng/0.2 ml/animal) were 34.4 ± 5.7 days, 49.3 ± 5.6 days and 43.7 ± 4.0 days, respectively. Further, the results for the “Increase in life-span (T/C %)” value in data set [1] (0.5 ng/0.2 ml/animal), in data set [1] (5 ng/0.2 ml/animal) and in data set [1] (50 ng/0.2 ml/animal) were 116%, 167% and 148%, respectively. Further, the “Survivals after 40 days” value in data set [1] (0.5 ng/0.2 ml/animal) amounted to 1; in data set [1] (5 ng/0.2 ml/animal), 7; in data set [1] (50 ng/0.2 ml/animal) it was 6. Moreover, in the data set with macrophage, the “Growth inhibitory rate (%)” value amounted to 27.3%. In addition, the “Mean wet weight of tumor” value in the data set on Meth A ascitic tumor (setting [2]) stood at 0.90 ± 0.66 g; in the data set on Meth A ascitic tumor (no hyperthermia), 3.40 ± 1.38 g; with MC-1 cell (setting [3]), 2.9 ± 0.7 g; in the data set on MC-1 cell (setting [4]) it was 3.6 ± 0.4 g; in the data set on MC-1 cell (setting [5]), 0.5 ± 0.5 g; in the data set with MC-1 cell (setting [6]) it was 2.9 ± 0.9 g. Also, the “Mean wet weight of tumor” value in the data set with MC-1 cell (setting [7]) was 1.2 ± 0.2 g; in the data set with MC-1 cell (setting [8]), 3.5 ± 0.5 g. The figures for the “Growth inhibitory rate for tumor (%)” value in the data set on Meth A ascitic tumor (combined with hyperthermia) and with Meth A ascitic tumor (no hyperthermia) were 18.3% and 69.2%, respectively. Besides, the “Rate of survival (%)” value is recorded as 100% in the data set with MC-1 cell (setting [3]); 71.4% in the data set on MC-1 cell (setting [4]); 100% in the data set on MC-1 cell (setting [5]); 100% in the data set with MC-1 cell (setting [6]); 100% in the data set with MC-1 cell (setting [7]); 85.7% with MC-1 cell (setting [8]). In addition, the LD50 at 168 h in “Acute toxicity (LD50)” (setting [9]) is 40 mg/kg; in the data set “Acute toxicity (LD50)” (po, oral administration), at least 4000 mg/kg.
Take `CCN1C=CC(=CC=C(C=Cc2cc[n+](CC)c3ccccc23)c2cc[n+](CC)c3ccccc23)c2ccccc21` [compound 2]: the “Growth inhibitory rate (%)” value with macrophage came out at 44.5%. Moreover, the LD50 in the data set on ddy mice (setting [10]) was 30 mg/kg body weight; in the data set on ddy mice (oral administration), at least 4.0 g/kg body weight.
For `CCN1C=CC(=CC=C(C=Cc2cc[n+](CC)c3ccccc23)c2cc[n+](CC)c3ccccc23)c2ccccc21` [compound 3] the same measures were 32.3%, 31 mg/kg body weight and at least 4.0 g/kg body weight.
Regarding `CCN1C=CC(=CC=C(C=Cc2cc[n+](CC)c3ccccc23)c2cc[n+](CC)c3ccccc23)c2ccccc21` [compound 4], in the data set on macrophage, the “Growth inhibitory rate (%)” value came out at 36.2%. Besides, the LD50 in the data set on ddy mice (setting [10]) is on record as 37 mg/kg body weight; in the data set on ddy mice (oral administration), at least 4.0 g/kg body weight.
With `CN1C=CC(=CC=C(C=Cc2cc[n+](C)c3ccccc23)c2cc[n+](C)c3ccccc23)c2ccccc21` [compound 6], in the data set with macrophage, the “Growth inhibitory rate (%)” value is 41.8%. For the same molecule, the LD50 at 168 h was 65 mg/kg in the data set “Acute toxicity (LD50)” (setting [9]) and at least 4000 mg/kg in “Acute toxicity (LD50)” (po, oral administration).
